Test results published in US20250235446A1, “COMPOSITION FOR INHIBITING METASTASIS AND ENHANCING ANTICANCER DRUG SENSITIVITY” (Korea Advanced Institute of Science and Technology, priority 2020, published 2025).

How the values were obtained:
A549 cells [1] = test: Western blot of phenotype-related proteins (E-CAD, ZEB1) in EMT-induced lung cancer cells; format: cell-based
Procedure: The activity of TGF-β in a tumor microenvironment performs various functions, such as promoting cancer growth and EMT. Cancer cells were treated with TGF-β, an external stimulus, to induce EMT, and the results were illustrated in FIG. 1. To this end, A549 cells (KCBL No. 10185) as a lung cancer cell line were purchased from the Korean Cell Line Bank (KCLB). EMT was induced by treating the A549 cells with TGF-β (5 ng/mL, Peprotech, Cranbury, NJ, USA) for 48 hours. Changes in protein expression of cancer cells were confirmed through western blot analysis in the following process. First, cells were lysed in a lysis buffer [including 20 mM HEPES, pH 7.2, 150 mM NaCl, 0.5% Triton X-100, 10% glycerol, protease/phosphatase inhibitor mixture (protease/phosphatase inhibitor cocktail (Thermofisher, Waltham, MA))]. The lysate was centrifuged at 13,000 rpm at 4° C. for 20 minutes, and the supernatant was obtained and separated by SDS-PAGE, and then subjected to western blot analysis. To observe the amounts of proteins, E-cadherin (sc-21791), p53 (sc-126), SMAD4 (sc-7966), ZEB1 (sc-515797), mouse IgG (sc-2025) and rabbit IgG (#sc-2027) antibodies (purchased from Santa Cruz Biotechnology (Santa Cruz, CA, USA)) were used. In addition, ERK1/2 (#9102), phospho-ERK1/2 (#9106), phospho-MEK1/2 (#9121) and MYC (#13987) antibodies (Cell Signaling Technology (Beverly, MA, USA)) were used and the amounts of the proteins were observed. In addition, the rabbit polyclonal anti-GAPDH antibody was provided and used from the Korea Research Institute of Bioscience and Biotechnology.
TGF-β-treated cancer cells and -untreated cancer cells were treated with Nutlin-3a (5 μM, Sigma, St. Louis, Mo) to activate p53. It was confirmed whether the epithelial cell phenotype was restored according to p53 activation, and the results were shown in FIG. 2. At this time, after inducing EMT of A549 cells under the same conditions as in Example 1-1, Nutlin-3a (1 μM, Sigma, St. Louis, Mo) was treated, and Western blot and qRT-PCR were performed in the same method as in Example 1-1. […]

A549 cells [2] = test: qRT-PCR of genes related to mesenchymal cells, epithelial cells and stemness; format: cell-based
Procedure: In addition, qRT-PCR was performed to perform transcript analysis for all genes (n=3, mean±SD). The qRT-PCR analysis was performed using a PCR system (Veriti 96well Thermal Cycler, Applied Biosystems, Waltham, MA, USA), and the qRT-PCR analysis was performed using the QuantStudio 5 real-time PCR system (Applied Biosystems, Foster City, CA), samples containing 20 μL of cDNA, primers, and SYBR Master Mix (Genet Bio, Daejeon, Korea).
TGF-β-treated cancer cells and -untreated cancer cells were treated with Nutlin-3a (5 μM, Sigma, St. Louis, Mo) to activate p53. It was confirmed whether the epithelial cell phenotype was restored according to p53 activation, and the results were shown in FIG. 2. At this time, after inducing EMT of A549 cells under the same conditions as in Example 1-1, Nutlin-3a (1 μM, Sigma, St. Louis, Mo) was treated, and Western blot and qRT-PCR were performed in the same method as in Example 1-1.
In addition, in order to measure cell viability, the A549 cells from which the SMAD4 gene was deleted as described above were seeded in a 96-well plate and after 24 hours, EMT was induced and Nutlin-3a (1 μM) was treated, and then an anticancer drug 5-FU (1 μM) or DOX (0.5 μM) was treated for 5 days. In FIG. 4A, after 5 days, the cells were imaged using IncuCyte ZOOM (Sartorius, Gottingen, Germany), and the cell viability was measured by confluence of adherent living cells using IncuCyte software. In addition, the results were confirmed by qRT-PCR in the same manner as in Example 1-1 and illustrated in FIG. 4B (n=3, mean±SD).
Alternatively, in the same manner as in Example 2, the A549 cells from which the SMAD4 gene was deleted were treated with shRNAs set forth in SEQ ID NO: 2 (shERK1) and SEQ ID NO: 3 (shERK2), thereby deleting the ERK gene. Then, the results were confirmed by western blot analysis or qRT-PCR (n=3, mean±SD).

[3] = A549 cells, TGF-β 5 ng/mL for 48 hours

Row | Compound | epithelial cell phenotype (E-CAD+/ZEB1−), protein expression (A549 cells [1]; TGF-β-treated A549 cells (TGF-β maintained)) | epithelial cell phenotype (E-CAD+/ZEB1−), protein expression (A549 cells [1]; TGF-β-untreated A549 cells) | activity of SNAI1 gene (mesenchymal) (A549 cells [2]; TGF-β-treated A549 cells) | activity of TWIST1 gene (mesenchymal) (A549 cells [2]; TGF-β-treated A549 cells) | activity of ZEB1 gene (mesenchymal) (A549 cells [2]; TGF-β-treated A549 cells) | activity of genes CDH1 and EpCAM related to epithelial cells (A549 cells [2]; TGF-β-treated A549 cells) | expression of the E-cadherin protein (A549 cells [1]; [3]) | expression of GRHL2 and OVOL1 genes related to epithelial cells (A549 cells [2]; [3]) | expression of genes CDH1 and EpCAM related to epithelial cells (A549 cells [2]; [3]) | expression of genes SMAD4, ZEB1, VIM, SNAI1, SNAI2 related to mesenchymal cells (A549 cells [2]; [3])
1 | COc1ccc(C2=N[C@@H](c3ccc(Cl)cc3)[C@@H](c3ccc(Cl)cc3)N2C(=O)N2CCNC(=O)C2)c(OC(C)C)c1 [Nutlin-3a] | converged to inactivation of E-CAD and inactivation of ZEB1 | restored | suppressed | almost no change | significantly inhibited | rather decreased or still showed the low activity | – | – | – | –
2 | transforming growth factor beta [TGF-β] | – | – | – | – | – | – | reduced | did not show significant changes | reduced | activated
